We go through 3 molecules from article PMC6836411, “Identification and characterization of the Cucurbitacins, a novel class of small-molecule inhibitors of Tropomyosin receptor kinase a” (BMC Complementary and Alternative Medicine, 2019).

By IC50 is commonly meant the point on the concentration scale where inhibition reaches its midpoint. Lower therefore signals higher potency. The remaining activity is the activity still measured, relative to the control.

Format in all cases: biochemical
The target of test [1] is T1, Tropomyosin receptor kinase A (TrkA) (Homo sapiens, UniProt P04629).
T1 construct: gene NTRK1
Briefly: radiometric [γ-33P]ATP kinase assay, poly(Glu,Tyr) substrate, dose-response.

A further test deals with CAMK1 (Homo sapiens, UniProt Q14012). Briefly: radiometric kinase panel, single dose […], duplicate. The settings on record: read-out: % remaining activity at 500 nM.
For a further test, the target named is T2, Aurora B (Homo sapiens, UniProt Q96GD4).
T2 construct: gene AURKB
The test is described as above. The settings on record: read-out: % remaining activity at 500 nM.

T1 sequence (P04629 441-796 limits assumed): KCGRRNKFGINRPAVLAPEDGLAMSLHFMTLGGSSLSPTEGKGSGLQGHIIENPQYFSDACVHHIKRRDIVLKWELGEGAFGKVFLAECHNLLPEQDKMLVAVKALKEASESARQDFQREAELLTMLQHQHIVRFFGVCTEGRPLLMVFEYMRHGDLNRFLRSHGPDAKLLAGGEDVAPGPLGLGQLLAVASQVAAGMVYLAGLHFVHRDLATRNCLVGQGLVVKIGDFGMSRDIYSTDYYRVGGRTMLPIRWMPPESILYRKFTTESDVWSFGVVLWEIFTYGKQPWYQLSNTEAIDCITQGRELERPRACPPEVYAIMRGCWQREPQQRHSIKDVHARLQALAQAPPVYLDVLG
Chain of CAMK1 (Q14012 whole entry): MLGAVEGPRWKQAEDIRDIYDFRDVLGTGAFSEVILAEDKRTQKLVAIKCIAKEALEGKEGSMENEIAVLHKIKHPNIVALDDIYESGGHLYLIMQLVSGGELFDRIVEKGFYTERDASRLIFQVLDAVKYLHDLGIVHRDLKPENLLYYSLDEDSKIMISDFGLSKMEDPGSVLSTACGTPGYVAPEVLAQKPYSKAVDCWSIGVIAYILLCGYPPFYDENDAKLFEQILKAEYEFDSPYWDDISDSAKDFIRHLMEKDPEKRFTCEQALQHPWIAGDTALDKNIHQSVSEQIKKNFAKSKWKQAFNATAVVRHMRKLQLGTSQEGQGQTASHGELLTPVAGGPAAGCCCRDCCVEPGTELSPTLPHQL
T2 sequence (Q96GD4 whole entry): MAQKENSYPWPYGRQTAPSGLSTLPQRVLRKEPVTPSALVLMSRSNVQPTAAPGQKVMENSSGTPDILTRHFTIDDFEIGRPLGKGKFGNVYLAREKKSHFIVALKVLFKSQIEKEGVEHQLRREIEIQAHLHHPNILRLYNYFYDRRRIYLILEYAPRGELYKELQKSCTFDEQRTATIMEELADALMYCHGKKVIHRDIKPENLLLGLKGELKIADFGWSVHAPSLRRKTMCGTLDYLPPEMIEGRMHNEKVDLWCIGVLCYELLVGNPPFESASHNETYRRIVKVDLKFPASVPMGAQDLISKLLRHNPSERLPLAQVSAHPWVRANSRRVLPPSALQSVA

In turn, `CC(=O)OC(C)(C)/C=C/C(=O)[C@](C)(O)[C@H]1[C@H](O)C[C@@]2(C)[C@@H]3CC=C4[C@@H](C[C@H](O)C(=O)C4(C)C)[C@]3(C)C(=O)C[C@]12C` [CuB, Cucurbitacin B] showed an IC50 in test [1] of 178 nM. The remaining activity at 0.5 µM at CAMK1 was 12.9 ± 3.7%; on Aurora B, 23.2 ± 2.8%.
In test [1], `CC(=O)OC(C)(C)/C=C/C(=O)[C@](C)(O)[C@H]1[C@H](O)C[C@@]2(C)[C@@H]3CC=C4[C@@H](C=C(O)C(=O)C4(C)C)[C@]3(C)C(=O)C[C@]12C` [CuE, Cucurbitacin E] had an IC50 of 549 nM.
The same measure, in the same setting: the same measure for `CC(C)(O)/C=C/C(=O)[C@](C)(O)[C@H]1[C@H](O)C[C@@]2(C)[C@@H]3CC=C4[C@@H](C=C(O)C(=O)C4(C)C)[C@]3(C)C(=O)C[C@]12C` [CuI, Cucurbitacin I]: 959 nM.
